This is an account of results in patent US8999990B2, “Inhibitors of the renal outer medullary potassium channel” (Merck Sharp & Dohme Corp., priority 2011, dated 2015).

The target in one assay is T1, hROMK (hKir1.1) (Homo sapiens, UniProt P48048).
T1 construct: expressed in transfected cells
T1 sequence (P48048 1-391): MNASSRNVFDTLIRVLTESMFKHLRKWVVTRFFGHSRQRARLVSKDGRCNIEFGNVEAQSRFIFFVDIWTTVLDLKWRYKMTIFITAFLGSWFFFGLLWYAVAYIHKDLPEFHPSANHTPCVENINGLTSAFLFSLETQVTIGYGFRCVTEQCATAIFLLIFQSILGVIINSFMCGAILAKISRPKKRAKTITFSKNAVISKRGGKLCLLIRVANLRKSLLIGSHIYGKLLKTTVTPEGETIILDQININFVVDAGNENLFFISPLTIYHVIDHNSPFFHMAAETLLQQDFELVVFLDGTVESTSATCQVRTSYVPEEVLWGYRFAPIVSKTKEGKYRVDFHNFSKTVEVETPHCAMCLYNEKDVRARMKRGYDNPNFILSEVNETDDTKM
Put plainly: Thallium Flux Assay. It is filed as cell-based. The protocol:
(§1) Several assays may be used to measure functional inhibition of the ROMK channel by compounds of the instant invention. One assay that was used to test the activity of compounds in the Examples is the functional ^86Rb^+ efflux assay described below, that measures the ability of ROMK to permeate ^86Rb^+, in the absence or presence of test compound. Under control conditions, cells loaded with ^86Rb^+ and incubated in Rb^+-free medium display a time-dependent efflux of the isotope, the rate of which depends on number of functional channels. When cells are incubated in the presence of a channel inhibitor, efflux of ^86Rb^+ is prevented in a concentration-dependent manner, and IC50 values of inhibition by compounds can be accurately determined. This assay has been established with cell lines expressing either human, rat or dog ROMK channels, and can operate in 96- or 384-well format. Importantly, the human, rat, and dog ^86Rb^+ efflux assays can be carried out in the presence of up to 100% serum allowing, therefore, an accurate estimation of the effect of protein binding on the inhibitory activity of compounds of interest. Another ROMK functional assay used to test the activity of compounds in the Examples (described below) makes use of the ability of thallium to permeate through open ROMK channels and increase the fluorescence of a dye previously loaded into the cells. Under control conditions, cells loaded with dye and exposed to thallium-containing medium display a time-dependent increase in fluorescence, the rate of which depends on number of functional channels. When cells are incubated in the presence of a channel inhibitor, the increase in fluorescence is attenuated in a concentration-dependent manner, and IC50 values of inhibition by compounds can be accurately determined. This assay has been established with cell lines expressing either human, or rat ROMK channels, and operates in 384-well format.
HEK293 cells stably expressing hROMK (hKir1.1) were grown at 37° C. in a 10% CO2 humidified incubator in complete growth media: Dulbecco's Modified Eagle Medium supplemented with non-essential amino acids, Penicillin/Streptomycin/Glutamine, G418 and FBS. At >80% confluency, aspirate the media from the flask and rinse with 10 mL Calcium/Magnesium-free PBS. Add 5 mL of 1× trypsin (prepared in Ca/Mg Free PBS) to T-225 flask and return flask to 37° C./CO2 incubator for 2-3 minutes. To dislodge the cell, gently bang the side of the flask with your hand. Triturate the cells completely and then transfer the cells to 25 mL complete media. Centrifuge at 1,500 rpm for 6 min followed by resuspension in complete growth media and determine cell concentration. For typical re-seeding, 4E6 cells/T-225 flask will attain >80% confluency in 4 days. Under ideal growth conditions and appropriate tissue culture practices, this cell line is stable for 40-45 passages.
• FluxOR™ Reagent (Component A) • FluxOR™ Assay Buffer (Component B)—10× Concentrate • PowerLoad™ Concentrate (Component C)—100× Concentrate • Probenecid (Component D)—Lyophilized sample is kept at −20° C. Water soluble, 100× after solubilization in 1 mL water. […] Store at 4° C. • Thallium sulfate (Tl2SO4) Concentrate (Component G)—50 mM in water. […]

For another assay, the target named is T2, hROMK1 (Kir1.1) (Homo sapiens, UniProt P48048).
T2 construct: expressed in transfected cells
T2 sequence (P48048 1-391): T1 sequence (P48048 1-391)
Put plainly: 86Rb+ Efflux Assay. The note with it: CHO-DHFR- cells stably expressing hROMK1; 35 min incubation. It is filed as cell-based. The protocol: as §1
CHO-DHFR-cells stably expressing hROMK1 (Kir1.1) are grown at 37° C. in a 10% CO2 humidified incubator in Iscove's Modified Dulbecco's Medium (Gibco 12440) supplemented with HT Supplement, Penicillin/Streptomycin/Glutamine, G418 (500 μg/ml) and 10% FBS. Cells are seeded in Sterile and Tissue Culture Treated Packard CulturPlate White Opaque Microplates at a concentration of 5.0E5-7.0E5 cells/ml-PerkinElmer 6005680 (96-well); Corning 3707 (384 well) in complete media containing 1.5 μCi/ml Rubidium-86. Cells are incubated in 37° C.-10% CO2 incubator overnight. On the day of the experiment, the media is removed and cells are washed with low K assay buffer. ^86Rb^+ efflux is initiated after addition of assay buffer±test compound followed by 35 min incubation at room temperature. ROMK-sensitive component of efflux is defined in the presence of 10 mM BaCl2. Assay buffer is removed and transferred to a plate and cells are solubilized in the presence of SDS. Radioactivity associated with assay and cell plate is determined.
• 1. Remove cell media and wash cells with low K assay buffer (126.9 mM NaCl, 4.6 mM KCl, 2 mM CaCl2, 1 mM MgCl2, 10 mM Hepes/NaOH; pH 7.4) • 200 μl for 96-well plate; 70 μl for 384-well plate • 2. Add assay buffer (121.5 mM NaCl, 10 mM KCl, 2 mM CaCl2, 1 mM MgCl2, 10 mM Hepes/NaOH; pH 7.4)±test compound to cells • 100 μl for 96-well plate; 50 μl for 384-well plate • 3. Incubate at ambient temperature (22-24° C.) for 35 min • 4. Remove assay buffer add it to a 96- or 384-well plate containing Microscint-20 • 96-well Plate: 100 μl buffer, 170 μl MicroScint 20 (for TopCount) • 384-well plate: 20 μl buffer, 50 μl Optiphiase (for MicroLux) • 5. Completely remove remaining assay buffer from cell plate • 6. Solubilize cells with 1% SDS; than add MicroScint or Optiphase • 96-well Plate: 30 μl SDS, 170 μl MicroScint 20 (for TopCount) • 384-well plate: 20 μl SDS, 50 μl Optiphiase (for MicroLux) • 7. Seal both cell and supernatant plates and count Data Calculation— […]

Where [1] appears, read: HEK293 cells stably expressing hROMK, FLIPR-Tetra, 384 wells, read-out: Thallium Flux IC50.

pIC50: −log10 of the molar value. Like-named read-outs stand apart in the source and are kept apart here. Some results are limits rather than exact numbers.

Consider `Cc1c(C(O)CN2CCN(CCc3ccc(C#N)cn3)C(=O)C2)ccc2c1COC2=O` (single isomer, unassigned) [Example 55, 6-(2-{4-[2-Hydroxy-2-(4-methyl-1-oxo-1,3-dihydro-2-benzofuran-5-yl)ethyl]-2-oxopiperazin-1-yl}ethyl)pyridine-3-carbonitrile], for which, on hROMK (hKir1.1) (setting [1]), the pIC50 (commonly the negative decadic logarithm of the IC50, by convention in mol/L) is 6.51. The “potency in the Thallium Flux Assay compared with Isomer A” value at hROMK (hKir1.1) (text of Example 55, separated stereo-isomers) was “more potent”.
As to `Cc1c(C(O)CN2CCN(CCc3ccc(C#N)cn3)C(=O)C2)ccc2c1COC2=O` (single isomer, unassigned) [Isomer A, 6-(2-{4-[2-Hydroxy-2-(4-methyl-1-oxo-1,3-dihydro-2-benzofuran-5-yl)ethyl]-2-oxopiperazin-1-yl}ethyl)pyridine-3-carbonitrile], the pIC50 on hROMK (hKir1.1) (text of Example 55, separated stereo-isomer, read-out: IC50 in the Thallium Flux Assay) is below 6.00.
`O=C1CN(CCc2ccc([N+](=O)[O-])c(F)c2)CCN1CCc1ccc2nonc2c1` [Example 20, 1-[2-(2,1,3-Benzoxadiazol-5-yl)ethyl]-4-[2-(3-fluoro-4-nitrophenyl)ethyl]piperazin-2-one] showed a pIC50 on hROMK1 (Kir1.1) of 6.77.
The compound `COc1cc(CCN2CCN(CCc3ccc([N+](=O)[O-])cc3)C(=O)C2)ccc1[N+](=O)[O-]` [Example 22, 4-[2-(3-Methoxy-4-nitrophenyl)ethyl]-1-[2-(4-nitrophenyl)ethyl]piperazin-2-one] gave a pIC50 on hROMK1 (Kir1.1) of 6.77.
Still for that read-out and setting: then `O=C1CN(CCc2ccc([N+](=O)[O-])cc2)CCN1CCc1ccc2nonc2c1` [Example 24, 1-[2-(2,1,3-Benzoxadiazol-5-yl)ethyl]-4-[2-(4-nitrophenyl)ethyl]piperazin-2-one], with 6.26; and `O=C1OCc2cc(CCN3CCN(CCc4ccc5nonc5c4)C(=O)C3)ccc21` [Example 27, 1-[2-(2,1,3-Benzoxadiazol-5-yl)ethyl]-4-[2-(1-oxo-1,3-dihydro-2-benzofuran-5-yl)ethyl]piperazin-2-one], with 6.06.
For `O=C1OCc2cc(CCN3CCN(CCc4ccc5c(c4)COC5=O)C(=O)C3)ccc21` [Example 29, 1,4-Bis[2-(1-oxo-1,3-dihydro-2-benzofuran-5-yl)ethyl]piperazin-2-one], the pIC50 on hROMK1 (Kir1.1) is 6.38.
On hROMK1 (Kir1.1), `COc1ccc(CCN2CCN(CCc3ccc4c(c3)COC4=O)C(=O)C2)cc1C#N` [Example 32, 2-Methoxy-5-(2-{3-oxo-4-[2-(1-oxo-1,3-dihydro-2-benzofuran-5-yl)ethyl]piperazin-1-yl}ethyl)benzonitrile] showed a pIC50 of 6.34.
With `N#Cc1c(F)ccc2c1CCC2CN1CCN(CCc2ccc3c(c2)COC3=O)CC1=O` (stereo not shown) [Example 34, 5-Fluoro-1-({2-oxo-4-[2-(1-oxo-1,3-dihydro-2-benzofuran-5-yl)ethyl]piperazin-1-yl}methyl)-2,3-dihydro-1H-indene-4-carbonitrile], the pIC50 at hROMK1 (Kir1.1) is 6.44.
As for `N#Cc1ccc(CCN2CCN(CCc3ccc4c(c3)COC4=O)CC2=O)cc1Br` [Example 35], the pIC50 at hROMK1 (Kir1.1) is 6.77.
Compound `N#Cc1ccc(CCN2CCN(CCc3ccc4c(c3)COC4=O)CC2=O)cc1Cl` [Example 36, 2-Chloro-4-(2-{2-oxo-4-[2-(1-oxo-1,3-dihydro-2-benzofuran-5-yl)ethyl]piperazin-1-yl}ethyl)benzonitrile] gave a pIC50 at hROMK1 (Kir1.1) of 6.96.
As to `Cc1c(C(O)CN2CCN(C[C@H](O)c3ccc4c(c3C)COC4=O)CC2=O)ccc2c1COC2=O` (stereo partly drawn) [Example 45, 4-[(2R)-2-Hydroxy-2-(4-methyl-1-oxo-1,3-dihydro-2-benzofuran-5-yl)ethyl]-1-[2-hydroxy-2-(4-methyl-1-oxo-1,3-dihydro-2-benzofuran-5-yl)ethyl]piperazin-2-one], the pIC50 on hROMK (hKir1.1) (setting [1]) is 6.17.
Same read-out and setting: the value for `Cc1c(C(O)CN2CCN(C[C@@H](O)c3ccc4c(c3C)COC4=O)CC2=O)ccc2c1COC2=O` (stereo partly drawn) [Example 46, 4-[(2S)-2-Hydroxy-2-(4-methyl-1-oxo-1,3-dihydro-2-benzofuran-5-yl)ethyl]-1-[2-hydroxy-2-(4-methyl-1-oxo-1,3-dihydro-2-benzofuran-5-yl)ethyl]piperazin-2-one] was 6.57; that for `Cc1c([C@@H](O)CN2CCN(C3CCc4cc(C#N)ccc4C3)C(=O)C2)ccc2c1COC2=O` (stereo partly drawn) [Example 47, 6-{4-[(2R)-2-Hydroxy-2-(4-methyl-1-oxo-1,3-dihydro-2-benzofuran-5-yl)ethyl]-2-oxopiperazin-1-yl}-5,6,7,8-tetrahydronaphthalene-2-carbonitrile] was 7.22.
As to `Cc1c(C(=O)CN2CCN(C[C@H](O)c3ccc4c(c3C)COC4=O)CC2=O)ccc2c1COC2=O` [Example 48, 4-[(2R)-2-Hydroxy-2-(4-methyl-1-oxo-1,3-dihydro-2-benzofuran-5-yl)ethyl]-1-[2-(4-methyl-1-oxo-1,3-dihydro-2-benzofuran-5-yl)-2-oxoethyl]piperazin-2-one], at hROMK (hKir1.1) (setting [1]), the pIC50 was 7.10.
For the compound `Cc1cc2c(cc1C(O)CN1CCN(C3CCc4cc(C#N)ccc4C3)C(=O)C1)COC2=O` (stereo not shown) [Example 49, 6-{4-[2-Hydroxy-2-(6-methyl-1-oxo-1,3-dihydro-2-benzofuran-5-yl)ethyl]-2-oxopiperazin-1-yl}-5,6,7,8-tetrahydronaphthalene-2-carbonitrile], the pIC50 at hROMK (hKir1.1) (setting [1]) was 7.05.
Still for that read-out and setting: then `COc1ccc(C(=O)CN2CCN(C[C@H](O)c3ccc4c(c3C)COC4=O)CC2=O)c(C)c1C#N` [Example 50, 3-({4-[(2R)-2-Hydroxy-2-(4-methyl-1-oxo-1,3-dihydro-2-benzofuran-5-yl)ethyl]-2-oxopiperazin-1-yl}acetyl)-6-methoxy-2-methylbenzonitrile], with 6.71.
As to `N#Cc1ccc2c(c1)CCC(N1CCN(C(=O)C3CCc4cc(-n5cnnn5)ccc43)CC1=O)C2` (stereo not shown) [Example 57, 6-(2-Oxo-4-{[5-(1H-tetrazol-1-yl)-2,3-dihydro-1H-inden-1-yl]carbonyl}piperazin-1-yl)-5,6,7,8-tetrahydronaphthalene-2-carbonitrile], at hROMK1 (Kir1.1), the pIC50 is 6.10.
